The structures appear in SMILES notation.

Holding throughout (settings): salmonella enterica subsp. enterica serovar typhimurium
For series [1], the system named is Salmonella typhimurium. In words: Mutagenic activity in Salmonella Typhimurium TA100 assessed as number of revertant colonies at 100000 ng/plate after 48 hrs by Ames assay. It is filed as toxicity, organism-based. For orientation: The Ames test detects mutagens through reverse mutation in bacteria.
Series [2] concerns Salmonella typhimurium. As to the kind of experiment: Mutagenic activity in Salmonella Typhimurium TA100 assessed as number of revertant colonies at 50000 ng/plate after 48 hrs by Ames assay. It is filed as toxicity, organism-based.
Series [3] has as its system Salmonella typhimurium. As to the kind of experiment: Mutagenic activity in Salmonella Typhimurium TA100 assessed as number of revertant colonies at 25000 ng/plate after 48 hrs by Ames assay. Type of series: toxicity, organism-based.
The subject of series [4] is Salmonella typhimurium. In words: Mutagenic activity in aldehyde-sensitive Salmonella Typhimurium TA104 assessed as number of revertant colonies at 100000 ng/plate after 48 hrs by Ames assay. Type of series: toxicity, organism-based.
For series [5], the system named is Salmonella typhimurium. In words: Mutagenic activity in aldehyde-sensitive Salmonella Typhimurium TA104 assessed as number of revertant colonies at 50000 ng/plate after 48 hrs by Ames assay. It is filed as toxicity, organism-based.
Series [6] has as its system Salmonella typhimurium. In words: Mutagenic activity in aldehyde-sensitive Salmonella Typhimurium TA104 assessed as number of revertant colonies at 25000 ng/plate after 48 hrs by Ames assay. Type of series: toxicity, organism-based.
In series [7] the test system is Salmonella typhimurium. In words: Mutagenic activity in Salmonella Typhimurium TA98 assessed as number of revertant colonies at 100000 ng/plate after 48 hrs by Ames assay. It is filed as toxicity, organism-based.
Series [8] concerns Salmonella typhimurium. In words: Mutagenic activity in Salmonella Typhimurium TA98 assessed as number of revertant colonies at 50000 ng/plate after 48 hrs by Ames assay. It is filed as toxicity, organism-based.
The test system of series [9] is Salmonella typhimurium. In words: Toxicity in Salmonella Typhimurium TA98 at 10000 ng/plate after 48 hrs by Ames assay. Type of series: organism-based.
Series [10] deals with Salmonella typhimurium. As to the kind of experiment: Toxicity in Salmonella Typhimurium TA98 at 5000 ng/plate after 48 hrs by Ames assay. Type of series: organism-based.
The test system of series [11] is Salmonella typhimurium. As to the kind of experiment: Mutagenic activity in Salmonella Typhimurium TA100 assessed as number of revertant colonies at 313 ng/plate after 48 hrs by Ames assay. Type of series: toxicity, organism-based.
Series [12] relates to Salmonella typhimurium. In words: Mutagenic activity in Salmonella Typhimurium TA100 assessed as number of revertant colonies at 156 ng/plate after 48 hrs by Ames assay. It is filed as toxicity, organism-based.
The test system of series [13] is Salmonella typhimurium. As to the kind of experiment: Mutagenic activity in Salmonella Typhimurium TA100 assessed as number of revertant colonies at 78 ng/plate after 48 hrs by Ames assay. It is filed as toxicity, organism-based.
In series [14] the test system is Salmonella typhimurium. As to the kind of experiment: Mutagenic activity in Salmonella Typhimurium TA100 assessed as number of revertant colonies at 36 ng/plate after 48 hrs by Ames assay. It is filed as toxicity, organism-based.
Series [15] concerns Salmonella typhimurium. In words: Toxicity in Salmonella Typhimurium TA100 at 10000 ng/plate after 48 hrs by Ames assay. Type of series: organism-based.
Series [16] relates to Salmonella typhimurium. In words: Toxicity in Salmonella Typhimurium TA100 at 5000 ng/plate after 48 hrs by Ames assay. Type of series: organism-based.
The subject of series [17] is Salmonella typhimurium. In words: Toxicity in Salmonella Typhimurium TA100 at 2500 ng/plate after 48 hrs by Ames assay. It is filed as organism-based.
The test system of series [18] is Salmonella typhimurium. In words: Toxicity in aldehyde-sensitive Salmonella Typhimurium TA104 at 10000 ng/plate after 48 hrs by Ames assay. Type of series: organism-based.
Series [19] relates to Salmonella typhimurium. As to the kind of experiment: Toxicity in aldehyde-sensitive Salmonella Typhimurium TA104 at 5000 ng/plate after 48 hrs by Ames assay. Type of series: organism-based.
The test system of series [20] is Salmonella typhimurium. As to the kind of experiment: Toxicity in aldehyde-sensitive Salmonella Typhimurium TA104 at 2500 ng/plate after 48 hrs by Ames assay. It is filed as organism-based.

Regarding `CC/C=C/C=C/C=C/C=C/C=O`, the Activity came to 221 in series [1]; 187 in [2]; 185 in series [3]; 181 in series [4]; 186 in series [5]; 165 in [6]. Also, the values for the Activity in [7] and in series [8] were 23 and 24, respectively.

As for `CC/C=C/C=C/C=C/C=C/C=C/OC[C@@H](O)CO`, the Activity result in series [9] is reported as “Toxic”; in [10], “Toxic”; in [11], 612; in series [12], 459; in [13], 306; in [14] it was 187. Further, the Activity entry in series [15], in series [16] and in series [17] was “Toxic” each time.

On to `CC/C=C/C=C/C=C/C=C/C=C/OCC(O)CO` (racemic), for which the Activity entry was “Toxic” in [9]; “Toxic” in series [10]; 799 in series [11]; 561 in series [12]; 204 in series [13]; 184 in series [14]. Moreover, the Activity result in [15], in series [16], in series [17], in series [18], in series [19] and in [20] was “Toxic” each time.

These data come from ChEMBL document CHEMBL1137793, “Synthesis and biological activity of analogs of fecapentaene-12” (J Nat Prod, 1987).
